Here are results for six compounds from patent US20260115213A1 (priority 2021, published 2026).

Test [1] relates to 5′-UTR of beta-globin. The following applies: HepG2 cells, 5, 10, 50 and 100 nM, 48 h, normalized to Renilla and DMSO control.
The target in test [2] is T1, eIF4A1(19-406)-(AG)5-AMPPNP complex (purified recombinant human eIF4A) (Homo sapiens, UniProt P60842).
T1 construct: eIF4A1(19-406)=amino acid residues 19-406 of eIF4A1; made in house
The experiment in a line: Thermal shift assay, melting temperature of eIF4A1(19-406)-(AG)5-AMPPNP-rocaglate complexes. Type of test: binding. The following applies: 5 μM eIF4A, 50 μM (AG)5 RNA, 1 mM AMP-PNP, 100 μM compound; DMSO negative control Tm=48.80. Here is the method: A thermal shift assay was performed to study the complexing of the synthetic rocaglates with the eIF4A complex. For the thermal shift assay a final protein concentration of 5 μM purified recombinant human eIF4A (purification according to Iwasaki, et al., 2019) was used. In a reaction volume of 20 μL a 10-fold excess of polypurine RNA ((AG)5) (biomers) (final concentration: 50 μM), 1 mM of the ATP analogue AMP-PNP (ROCHE™), 100 μM of the synthetic rocaglate compounds or DMSO as well as 0.3 μL SYPRO® Orange Protein Gel Stain (SIGMA-ALDRICH™) were mixed with the protein. The measurement was performed in a MICROAMP® Fast 96-Well Reaction Plate (0.1 mL, APPLIED BIOSYSTEMS™) using the QUANTSTUDIO3™ Real-Time PCR System (APPLIED BIOSYSTEMS™). The melt curve starting temperature was set to 10° C. in increments of 0.05° C./s ending at 95° C. After measurement, the data was analyzed using the PROTEIN THERMAL SHIFT™ Software (APPLIED BIOSYSTEMS™).

Test [3] relates to 5′-UTR of (AG)15. The settings on record: HepG2 cells, 5, 10, 50 and 100 nM, 48 h, normalized to Renilla and DMSO control.
Test [4] has as its system RNA viruses representing different virus families (EBOV, CoV, ZIKV, CHIKV, HEV). The following applies: non-cytotoxic concentrations; cited from earlier work.

T1 sequence (P60842 19-406, one chain of several): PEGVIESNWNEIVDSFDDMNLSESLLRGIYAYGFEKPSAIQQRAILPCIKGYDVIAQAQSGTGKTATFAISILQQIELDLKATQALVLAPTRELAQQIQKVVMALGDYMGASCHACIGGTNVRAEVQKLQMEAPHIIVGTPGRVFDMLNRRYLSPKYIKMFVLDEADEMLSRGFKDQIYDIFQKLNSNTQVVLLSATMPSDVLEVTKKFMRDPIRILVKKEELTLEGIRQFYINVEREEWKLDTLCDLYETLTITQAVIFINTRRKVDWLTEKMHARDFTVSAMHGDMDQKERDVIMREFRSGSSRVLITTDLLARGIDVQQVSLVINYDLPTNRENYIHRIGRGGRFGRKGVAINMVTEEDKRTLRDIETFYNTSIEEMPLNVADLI

For `CONC(=O)[C@H]1[C@@H](O)[C@@]2(O)c3c(OC)cc(OC)cc3O[C@@]2(c2ccc(O)cc2)[C@@H]1c1ccccc1` [Compound 1, (1R,2R,3S,3aR,8bS)-1,8b-dihydroxy-3a-(4-hydroxyphenyl)-N,6,8-trimethoxy-3-phenyl-2,3-dihydro-1Hcyclopenta[b]benzofuran-2-carboxamide], the “reporter activity, β-globin 5′-UTR (eIF4A-independent effect)” value in test [1] is listed as “nonspecific effects”. Moreover, the “melting temperature (Tm) of eIF4A1(19-406)-(AG)5-AMPPNP-Rocaglate complex” value (shortened to “melting temperature (Tm)”) in test [2] is 51.49.
As for `CONC(=O)[C@H]1[C@@H](O)[C@@]2(O)c3c(OC)cc(O)cc3O[C@@]2(c2ccc(OC)cc2)[C@@H]1c1ccccc1` [Compound 6, (1R,2R,3S,3aR,8bS)-1,6,8b-trihydroxy-N,8-dimethoxy-3a-(4-methoxyphenyl)-3-phenyl-2,3-dihydro-1Hcyclopenta[b]benzofuran-2-carboxamide], in test [2], the “melting temperature (Tm)” value came to 51.29.
For `CONC(=O)[C@@H]1[C@H](O)[C@]2(O)c3c(OC)cc(O)cc3O[C@]2(c2ccc(OC)cc2)[C@H]1c1ccccc1` [Compound 7, (1S,2S,3R,3aS,8bR)-1,6,8b-trihydroxy-N,8-dimethoxy-3a-(4-methoxyphenyl)-3-phenyl-2,3,3a,8b-tetrahydro-1H-cyclopenta[b]benzofuran-2-carboxamide], in test [2], the “melting temperature (Tm)” value is reported as 49.07.
For `COc1cc(OC)c2c(c1)O[C@]1(c3ccc(O)cc3)[C@@H](c3ccccc3)[C@H](C(N)=O)[C@H](O)[C@]21O` [Compound 8, (1S,2S,3R,3aS,8bR)-1,8b-dihydroxy-3a-(4-hydroxyphenyl)-6,8-dimethoxy-3-phenyl-2,3-dihydro-1H-cyclopenta[b]benzofuran-2-carboxamide], the “melting temperature (Tm)” value in test [2] is reported as 51.07.
Take `COc1cc(OC)c2c(c1)O[C@@]1(c3ccc(O)cc3)[C@H](c3ccccc3)[C@@H](C(N)=O)[C@@H](O)[C@@]21O` [Compound 9, (1R,2R,3S,3aR,8bS)-1,8b-dihydroxy-3a-(4-hydroxyphenyl)-6,8-dimethoxy-3-phenyl-2,3-dihydro-1H-cyclopenta[b]benzofuran-2-carboxamide]: the “melting temperature (Tm)” value in test [2] amounted to 55.44. Moreover, the “reporter activity, (AG)15 5′-UTR (eIF4A-dependency)” value in test [3] is “only reduced reporter activity with polyAG sequences”.
In the case of `COC(=O)[C@H]1[C@@H](O)[C@@]2(O)c3c(OC)cc(O[C@@H]4O[C@@H]([C@H](O)CO)CO[C@H]4OC)cc3O[C@@]2(c2ccc(OC)cc2)[C@@H]1c1ccccc1` [Silvestrol, methyl (1R,2R,3S,3aR,8bS)-6-[[(2S,3R,6R)-6-[(1R)-1,2-dihydroxyethyl]-3-methoxy-1,4-dioxan-2-yl]oxy]-1,8b-dihydroxy-8-methoxy-3a-(4-methoxyphenyl)-3-phenyl-2,3-dihydro-1H-cyclopenta[b][1]benzofuran-2-carboxylate], the “concentration range of broad-spectrum antiviral activity” value in test [4] was “low nanomolar range”.
